In patent US11414436B2, “Non-coordinating anion type activators containing cation having large alkyl groups” (ExxonMobil Chemical Patents Inc., priority 2018, dated 2022):
“And” between values parts separate entries of the source, which are not always exact repeats. Equal entries are not always repeated.

How the values were obtained:
[1] = Solubility studies of the activators (saturated solution in isohexane or methylcyclohexane); assay type: physicochemical
In short: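 Solid activators stirred in excess with isohexane or methylcyclohexane for several hours at 25 °C, filtered, and a filtrate aliquot evaporated and weighed. Emulsion-forming activators titrated with solvent until homogeneous, with activator mass found gravimetrically. Saturated concentration given in mM.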

[2] = RUN B: ethylene-octene polymerization in parallel pressure reactor, activator diluent toluene or methylcyclohexane; settings: ethylene-octene copolymerization; for activity: Cat 1 (MCN-1)
Procedure: RUN B: Polymerization in Parallel Pressure Reactor.
A series of ethylene-octene polymerizations were performed in the parallel pressure reactor according to the procedure described above. […] In a typical experiment an automated syringe was used to introduce into the reactor the following reagents, if utilized, in the following order: isohexane (0.35 mL), an isohexane solution of TNOAL scavenger (0.005 M, 60 μL), additional isohexane (0.35 mL), a toluene solution of the respective polymerization catalyst (150 μL, 0.4 mM, 20 nm [cat]/100 μL [toluene]), additional isohexane (0.35 mL), a toluene or methylcyclohexane solution of the respective activator (150 μL, 0.4 mM, (20 nm [act]/100 μL[ diluent])), then additional isohexane so that the total solvent volume for each run was 5 mL. Catalyst and activator were used in a 1:1 ratio. Each reaction was performed at a specified temperature range between 50 and 120° C., typically 95° C., while applying about 100 psig of ethylene (monomer) gas. Each reaction was allowed to run for about 1 hour (˜3600 seconds) or until approximately 20 psig of ethylene gas uptake was observed, at which point the reactions were quenched with air (˜300 psig). When sufficient polymer yield was attained (e.g., at least ˜10 mg), the polyethylene product was analyzed by Rapid GPC, described below.
In a typical experiment, the anilinium borate activators were combined with toluene or methylcyclohexane as diluent and introduced to the parallel, pressure reactor via syringe. By this mechanism of activator introduction, only well dissolved activators could be delivered to the reactor providing a means to discriminate between the polymerization performance of long chain soluble anilinium borates vs. conventional anilinium borates. Following addition of activator, the catalyst Cat 1 was introduced, via syringe as well-dissolved toluene solution and the polymerization was conducted per the methodology described above.

Molecule | Solubility limit in i-hexane (mM at 25° C.) ([1]; isohexane) [mM] | Solubility limit in i-hexane (wt % at 25° C.) ([1]; isohexane) [wt %] | Solubility limit in MeCy (mM at 25° C.) ([1]; methylcyclohexane) [mM] | quantity of polymer obtained with methylcyclohexane as diluent ([2]; Cat 1, activator in methylcyclohexane) | activity ([2]; activator diluent MeCy (methylcyclohexane)) [kg/mmol/h] | activity ([2]; activator diluent Toluene, listed as C2)
CCCCCCCCCCCCCCCCCC[NH+](CCCCCCCCCCCCCCCCCC)c1ccc(C)cc1.Fc1c(F)c(F)c2c(F)c([B-](c3c(F)c(F)c4c(F)c(F)c(F)c(F)c4c3F)(c3c(F)c(F)c4c(F)c(F)c(F)c(F)c4c3F)c3c(F)c(F)c4c(F)c(F)c(F)c(F)c4c3F)c(F)c(F)c2c1F [DOdTH-BF28, 4-methyl-N,N-dioctadecylbenzenaminium-BF28] | 120 | 29 | 160 |  |  | 
N,N-dimethylanilinium tetrakis(heptafluoronaphthalen-2-yl)borate [DMAH-BF28, reference compound] |  |  |  | insufficient for analysis | 0.0 | 441.3 kg/mmol/h and 392.4 kg/mmol/h and 390.1 kg/mmol/h and 408.1 kg/mmol/h
